Results: ChEMBL document CHEMBL5131384, “Design, synthesis, and biological evaluation of indole-based hydroxamic acid derivatives as histone deacetylase inhibitors” (Eur J Med Chem, 2022)

Experiments:
Histone deacetylase 1 = Histone deacetylase 1 (Homo sapiens, UniProt Q13547); assay: Inhibition of HDAC1 (unknown origin) using Boc-Lys(Ac)-AMC as substrate incubated for 60 mins by fluorescence plate reader assay
[1] = molecular target: T1, Protein deacetylase HDAC6 (Homo sapiens, UniProt Q9UBN7); assay: Inhibition of HDAC6 (unknown origin) using Boc-Lys(Ac)-AMC as substrate incubated for 60 mins by fluorescence plate reader assay
T1 sequence (Q9UBN7 whole entry): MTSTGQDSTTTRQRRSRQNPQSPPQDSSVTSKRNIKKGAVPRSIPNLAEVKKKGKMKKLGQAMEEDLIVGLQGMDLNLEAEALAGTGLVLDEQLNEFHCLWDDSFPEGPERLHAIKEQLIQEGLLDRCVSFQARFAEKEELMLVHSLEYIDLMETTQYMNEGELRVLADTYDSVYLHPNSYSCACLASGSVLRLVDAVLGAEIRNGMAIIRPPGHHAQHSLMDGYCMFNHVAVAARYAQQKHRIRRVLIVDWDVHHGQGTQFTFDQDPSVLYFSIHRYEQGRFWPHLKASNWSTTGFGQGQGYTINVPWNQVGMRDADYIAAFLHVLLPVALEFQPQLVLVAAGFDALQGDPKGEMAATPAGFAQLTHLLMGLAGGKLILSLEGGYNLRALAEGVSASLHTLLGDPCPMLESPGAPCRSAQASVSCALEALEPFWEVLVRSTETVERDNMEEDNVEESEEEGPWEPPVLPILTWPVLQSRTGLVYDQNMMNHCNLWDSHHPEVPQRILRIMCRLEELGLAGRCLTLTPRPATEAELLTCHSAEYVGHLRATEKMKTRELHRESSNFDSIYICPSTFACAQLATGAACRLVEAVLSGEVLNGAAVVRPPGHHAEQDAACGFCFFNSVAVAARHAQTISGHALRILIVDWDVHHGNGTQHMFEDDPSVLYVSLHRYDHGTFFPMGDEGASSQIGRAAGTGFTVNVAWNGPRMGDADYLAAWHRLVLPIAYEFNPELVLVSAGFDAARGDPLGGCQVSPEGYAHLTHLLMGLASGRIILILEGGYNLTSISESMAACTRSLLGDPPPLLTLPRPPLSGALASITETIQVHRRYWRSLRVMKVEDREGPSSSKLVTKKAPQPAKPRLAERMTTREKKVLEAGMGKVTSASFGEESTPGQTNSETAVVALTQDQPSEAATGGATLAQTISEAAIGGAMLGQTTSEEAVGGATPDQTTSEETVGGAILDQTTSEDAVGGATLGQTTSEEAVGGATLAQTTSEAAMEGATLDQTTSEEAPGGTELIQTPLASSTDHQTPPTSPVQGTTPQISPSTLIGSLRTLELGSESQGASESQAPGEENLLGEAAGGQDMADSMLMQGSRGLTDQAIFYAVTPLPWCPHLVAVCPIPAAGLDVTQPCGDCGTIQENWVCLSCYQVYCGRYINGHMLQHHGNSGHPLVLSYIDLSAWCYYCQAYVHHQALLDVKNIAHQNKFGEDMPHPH

A549 = assay: Antiproliferative activity against human A549 cells assessed as reduction in cell viability incubated for 72 hrs by WST-8 assay; format: functional, cell-based; conditions: A549, 72 h
MDA-MB-231 = assay: Antiproliferative activity against human MDA-MB-231 cells assessed as reduction in cell viability incubated for 72 hrs by WST-8 assay; format: functional, cell-based; conditions: MDA-MB-231, 72 h
SGC-7901 = assay: Antiproliferative activity against human SGC-7901 cells assessed as reduction in cell viability incubated for 72 hrs by WST-8 assay; format: functional, cell-based; conditions: SGC-7901, 72 h
HCT-116 = assay: Antiproliferative activity against human HCT-116 cells assessed as reduction in cell viability incubated for 72 hrs by WST-8 assay; format: functional, cell-based; conditions: HCT-116, 72 h
HL-60 = assay: Antiproliferative activity against human HL-60 cells assessed as reduction in cell viability incubated for 72 hrs by WST-8 assay; format: functional, cell-based; conditions: HL-60, 72 h

Sequence of Histone deacetylase 1 (Q13547 whole entry): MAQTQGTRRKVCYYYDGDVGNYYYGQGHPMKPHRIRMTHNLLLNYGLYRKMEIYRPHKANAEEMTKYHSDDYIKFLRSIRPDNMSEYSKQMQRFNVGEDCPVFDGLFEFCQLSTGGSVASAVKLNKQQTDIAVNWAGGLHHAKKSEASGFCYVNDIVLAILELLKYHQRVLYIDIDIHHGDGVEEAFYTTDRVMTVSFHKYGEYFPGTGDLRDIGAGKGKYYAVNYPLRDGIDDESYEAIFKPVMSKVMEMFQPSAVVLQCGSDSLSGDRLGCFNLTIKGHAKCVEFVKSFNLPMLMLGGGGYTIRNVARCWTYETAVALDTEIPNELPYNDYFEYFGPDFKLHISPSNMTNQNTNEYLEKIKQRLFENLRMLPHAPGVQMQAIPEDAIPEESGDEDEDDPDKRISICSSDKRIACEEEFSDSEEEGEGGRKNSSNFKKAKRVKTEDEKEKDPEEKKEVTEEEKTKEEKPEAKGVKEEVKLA

| Structure (SMILES) | IC50 (Histone deacetylase 1) | IC50 [1] | IC50 (A549) | IC50 (MDA-MB-231) | IC50 (SGC-7901) | IC50 (HCT-116) | IC50 (HL-60) |
| --- | --- | --- | --- | --- | --- | --- | --- |
| O=C(NC1C2CC3CC(C2)CC1C3)c1cn(CCCCCCS)c2ccccc12 (configuration not stated) | 169 nM | 19 nM |  |  |  |  |  |
| O=C(CCCCn1cc(C(=O)NC2C3CC4CC(C3)CC2C4)c2ccccc21)NO (configuration not stated) | 53.6 nM | 39.9 nM |  |  |  |  |  |
| O=C(CCCCCCn1cc(C(=O)Nc2ccc(Cl)cc2Cl)c2ccccc21)NO | 2.53 nM | 3.73 nM | 47000 nM | 16200 nM | 2590 nM | 4500 nM | 10500 nM |
| O=C(CCCCCn1cc(C(=O)NC2C3CC4CC(C3)CC2C4)c2ccccc21)NO (configuration not stated) | 67.4 nM | 10.4 nM |  |  |  |  |  |
| O=C(CCCCCCn1cc(C(=O)NC2CCCCCC2)c2ccccc21)NO | 2 nM | 2.11 nM |  |  |  |  |  |
| O=C(CCCCCCn1nc(C(=O)NC2C3CC4CC(C3)CC2C4)c2ccccc21)NO (configuration not stated) | 2.96 nM | 2.72 nM |  |  |  |  |  |
| CC(=O)SCCCCCCCn1cc(C(=O)NC2C3CC4CC(C3)CC2C4)c2ccccc21 (configuration not stated) | > 1000 nM | > 1000 nM |  |  |  |  |  |
| CC(=O)SCCCCCCn1cc(C(=O)NC2C3CC4CC(C3)CC2C4)c2ccccc21 (configuration not stated) | > 1000 nM | > 1000 nM |  |  |  |  |  |
| O=C(CCCCCCn1c(C(=O)NC2C3CC4CC(C3)CC2C4)cc2cc(Cl)ccc21)NO (configuration not stated) | 2.16 nM | 6.84 nM |  |  |  |  |  |
| O=C(/C=C/c1ccc(Cn2cc(C(=O)NC3C4CC5CC(C4)CC3C5)c3ccccc32)cc1)NO (configuration not stated) | 143 nM | 73.3 nM |  |  |  |  |  |
| O=C(CCCCCCn1cc(C(=O)N2CCOCC2)c2ccccc21)NO | 8.95 nM | 7.59 nM |  |  |  |  |  |
